Here are results for twelve compounds from ChEMBL document CHEMBL1201862, “PubChem BioAssay data set” (2004).

Among the test systems are HCT-116; T47D; SK-MEL-5; NCI-H226; TK-10; SN12C; MOLT-4; EKVX; HOP-92; SF-539; A549; ACHN; SNB-75; Malme-3M; NCI-H23; KM12; MCF7; UACC-257; HCC 2998; MDA-N.
What all share (assay): inhibition of tumour cell growth, NCI panel, 48 h

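96-well plates; 48 h exposure; 5 concentrations. Endpoints by linear interpolation between flanking doses. Not reached: highest tested concentration assigned. Here, GI50 denotes the concentration required for 50% inhibition of growth.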 Activity calls are given as the source filed them. Cut-off read from the data, not from the text of the source: active = GI50 up to about 1.1 µM and inactive = higher.

On to `O=C1c2cc(I)ccc2N2CCN=C2N1Cc1ccccc1`, for which the GI50 is > 100 µM (inactive) in the test with HCT-116; 58.7 µM (inactive) in the test on T47D; > 100 µM (inactive) with SK-MEL-5; > 100 µM (inactive) with NCI-H226; > 100 µM (inactive) in the test on TK-10; > 100 µM (inactive) in the test on SN12C. For the same compound, the GI50 with MOLT-4 is 4.46 µM (inactive); in the test with EKVX it was 22.1 µM (inactive); in the test on HOP-92 it was 17.7 µM (inactive); in the test with SF-539 it was 37.5 µM (inactive); in the test with A549, > 100 µM (inactive); with ACHN, 51.2 µM (inactive). The GI50 in the test with SNB-75 is 19.7 µM (inactive); in the test with Malme-3M, > 100 µM (inactive); with NCI-H23, > 100 µM (inactive); in the test on KM12, > 100 µM (inactive); in the test with MCF7, > 100 µM (inactive); with UACC-257 it was > 100 µM (inactive).
As for `Cn1sc2ccccc2c1=S`, the GI50 in the test with HCC 2998 is 28.2 µM (inactive); in the test on HCT-116 it was 3.21 µM (inactive); with SK-MEL-5, 12.4 µM (inactive); in the test on NCI-H226 it was 23.2 µM (inactive); with TK-10, 24.1 µM (inactive); in the test with SN12C, 6.75 µM (inactive). Besides, the GI50 in the test on MOLT-4 was 4.04 µM (inactive); in the test with EKVX it was 8.69 µM (inactive); in the test with HOP-92, 16.6 µM (inactive); with SF-539, 5.83 µM (inactive); with A549 it was 13.9 µM (inactive); in the test on ACHN it was 13.8 µM (inactive). Further, the GI50 in the test with SNB-75 is 6.82 µM (inactive); in the test with Malme-3M, 9.82 µM (inactive); with NCI-H23 it was 11.7 µM (inactive); in the test with KM12, 12 µM (inactive); in the test with MCF7 it was 2.64 µM (inactive); in the test on UACC-257, 8.63 µM (inactive).
Regarding `Oc1ccc(/N=C/c2ccc(/C=N/c3ccc(O)cc3)cc2)cc1`, the GI50 with HCT-116 was 14.8 µM (inactive); in the test with T47D, 25.7 µM (inactive); in the test on SK-MEL-5, 15 µM (inactive); with NCI-H226, 14.6 µM (inactive); in the test on TK-10, 18.1 µM (inactive); with SN12C, 14.9 µM (inactive). The GI50 was 3.88 µM (inactive) in the test on MOLT-4; 32.1 µM (inactive) in the test on EKVX; 24.7 µM (inactive) with HOP-92; 15.3 µM (inactive) in the test with SF-539; 19.2 µM (inactive) in the test with A549; 13.1 µM (inactive) in the test with ACHN. In addition, the GI50 with SNB-75 is 16.7 µM (inactive); with Malme-3M, 18 µM (inactive); in the test on NCI-H23 it was 17.1 µM (inactive); in the test with KM12, 15.3 µM (inactive); with MCF7, 22.9 µM (inactive); with UACC-257, 16.8 µM (inactive).
Take `COC(=O)c1c(-c2ccc(Cl)cc2)cc2c3ccccc3n(C)c2c1C(=O)OC`: the GI50 in the test on MDA-N, with HCT-116, in the test with SK-MEL-5, in the test on NCI-H226, in the test on TK-10 and in the test on SN12C was > 100 µM (inactive) in each case. Also, the GI50 in the test on MOLT-4 was 23.1 µM (inactive); in the test on EKVX, > 100 µM (inactive); in the test with HOP-92, > 100 µM (inactive); in the test on SF-539, > 100 µM (inactive); with A549, > 100 µM (inactive); in the test on ACHN it was > 100 µM (inactive). Also, the GI50 with Malme-3M was > 100 µM (inactive); with NCI-H23, > 100 µM (inactive); with KM12, > 100 µM (inactive); with MCF7, 38.3 µM (inactive); in the test on UACC-257, 64.7 µM (inactive).
For the compound `CCOC(=O)c1c(-c2ccc(O)c(OC)c2)c(C#N)c(=S)n(C2OC(CO)C(O)C(O)C2O)c1-c1ccccc1` (centres undefined), the GI50 with HCC 2998 was > 100 µM (inactive); in the test on MDA-N, > 100 µM (inactive); in the test with HCT-116, > 100 µM (inactive); in the test on SK-MEL-5, > 100 µM (inactive); with NCI-H226 it was 13 µM (inactive); with SN12C it was > 100 µM (inactive). The GI50 in the test with MOLT-4 is 54.3 µM (inactive); with EKVX, > 100 µM (inactive); in the test on HOP-92 it was 66.7 µM (inactive); in the test on A549, > 100 µM (inactive); with ACHN, > 100 µM (inactive); in the test on NCI-H23 it was > 100 µM (inactive). Also, the GI50 with KM12, in the test with MCF7 and with UACC-257 was > 100 µM (inactive) each time.
With `O=C(O)c1ccccc1C(=O)Nn1cnnc1`, the GI50 in the test on HCC 2998, in the test on MDA-N, with HCT-116, with SK-MEL-5, in the test on TK-10 and in the test on SN12C was > 100 µM (inactive) each time. The GI50 in the test on MOLT-4, in the test on EKVX, in the test with HOP-92, with SF-539, in the test with A549 and with ACHN was > 100 µM (inactive) throughout. Moreover, the GI50 in the test on SNB-75, in the test with NCI-H23, in the test on KM12, in the test on MCF7 and in the test on UACC-257 was > 100 µM (inactive) each time.
As to `CCN(CC)C1CC(O[C@H]2C[C@](O)(C(=O)CO)Cc3c(O)c4c(c(O)c32)C(=O)c2c(OC)cccc2C4=O)OC(C)C1O` (some centres undefined), the GI50 in the test with HCC 2998 is 0.0948 µM (active); in the test with HCT-116, 0.0214 µM (active); with SK-MEL-5, 0.0508 µM (active); in the test with NCI-H226, 0.019 µM (active); in the test on TK-10, 0.0881 µM (active); in the test with SN12C, 0.045 µM (active). Moreover, the GI50 in the test on MOLT-4 was 0.0225 µM (active); with EKVX, 0.082 µM (active); with HOP-92, 0.0522 µM (active); with SF-539, 0.0461 µM (active); in the test with A549, 0.0395 µM (active); in the test with ACHN, 0.0316 µM (active). Also, the GI50 in the test with SNB-75 is 0.028 µM (active); in the test with Malme-3M, 0.0653 µM (active); in the test on NCI-H23 it was 0.0491 µM (active); with KM12, 0.0577 µM (active); in the test on UACC-257 it was 0.0951 µM (active).
As for `Cc1cc(NS(=O)(=O)c2ccc(NC(=O)c3cccn4c(=O)c5ccccc5nc34)cc2)no1`, the GI50 with HCC 2998, with HCT-116, in the test on SK-MEL-5, in the test with NCI-H226, in the test on TK-10 and in the test with SN12C was > 100 µM (inactive) throughout. The GI50 in the test with MOLT-4, in the test on EKVX, in the test on HOP-92, in the test on SF-539, with A549 and in the test on ACHN was > 100 µM (inactive) in each case. In addition, the GI50 in the test on SNB-75, in the test on Malme-3M, in the test with NCI-H23, in the test with KM12 and in the test on UACC-257 was > 100 µM (inactive) each time.
In the case of `O=c1[nH]c(=O)n(C2OC(CO)C(O)C2O)cc1/N=N/NCc1ccccc1` (centres undefined), the GI50 with HCC 2998 was > 100 µM (inactive); with HCT-116, > 62.2 µM (inactive); with SK-MEL-5, > 100 µM (inactive); with NCI-H226, > 100 µM (inactive); in the test with TK-10, > 100 µM (inactive); with SN12C, > 100 µM (inactive). For the same compound, the GI50 in the test on MOLT-4, in the test on EKVX, in the test with HOP-92, in the test with SF-539, with A549 and with ACHN was > 100 µM (inactive) in each case. The GI50 in the test with SNB-75, in the test on Malme-3M, in the test with NCI-H23, in the test on KM12 and with UACC-257 was > 100 µM (inactive) each time.
As for `O=C1CC(c2cccc(Br)c2)n2cccc21` (centres undefined), the GI50 in the test with HCC 2998 was 54.7 µM (inactive); in the test on HCT-116, > 100 µM (inactive); with T47D it was 63.4 µM (inactive); with NCI-H226 it was 92.9 µM (inactive); in the test with TK-10, > 100 µM (inactive); with SN12C, > 100 µM (inactive). Moreover, the GI50 with MOLT-4 is 40.1 µM (inactive); with EKVX it was > 100 µM (inactive); with HOP-92 it was 81.3 µM (inactive); with SF-539 it was > 100 µM (inactive); with A549 it was 62.1 µM (inactive); with ACHN, 68.5 µM (inactive). The GI50 in the test on SNB-75 was 35.3 µM (inactive); in the test on NCI-H23, 63.5 µM (inactive); in the test with KM12, 46.2 µM (inactive); in the test with MCF7, 86.9 µM (inactive); in the test with UACC-257, > 100 µM (inactive).
On to `CCOC(=O)C(Br)(C(N)=O)C1(O)OC(c2ccccc2)=C(Br)C1=O` (centres undefined), for which the GI50 with HCC 2998 is 20 µM (inactive); in the test on HCT-116 it was 18.2 µM (inactive); in the test with T47D, 24.3 µM (inactive); in the test on SK-MEL-5 it was 22.6 µM (inactive); with NCI-H226, 19.2 µM (inactive); in the test with TK-10, 16.7 µM (inactive). Also, the GI50 is 17.2 µM (inactive) in the test with SN12C; 23.2 µM (inactive) in the test with EKVX; 18.2 µM (inactive) with SF-539; 26.2 µM (inactive) in the test on A549; 17.5 µM (inactive) with ACHN; 25.2 µM (inactive) in the test on Malme-3M. Further, the GI50 in the test on NCI-H23 is 23.7 µM (inactive); with KM12, > 100 µM (inactive); in the test with MCF7 it was 19.2 µM (inactive); in the test on UACC-257 it was > 100 µM (inactive).
In the case of `[O-][S+](Cc1cc2c(cc1Br)OCO2)c1ccccc1` (centres undefined), the GI50 is > 100 µM (inactive) in the test on HCC 2998; 44.9 µM (inactive) in the test on HCT-116; 61.5 µM (inactive) with SK-MEL-5; > 100 µM (inactive) in the test on NCI-H226; > 100 µM (inactive) in the test on TK-10; 48 µM (inactive) in the test with SN12C. In addition, the GI50 in the test on MOLT-4 is 26.5 µM (inactive); in the test with EKVX it was > 100 µM (inactive); in the test on HOP-92, 83.9 µM (inactive); in the test with SF-539, 32.7 µM (inactive); in the test with A549, > 100 µM (inactive); in the test with ACHN, 64.6 µM (inactive). The GI50 with SNB-75 is > 100 µM (inactive); with Malme-3M, 49.1 µM (inactive); in the test with NCI-H23, 68.2 µM (inactive); in the test on KM12, 17.9 µM (inactive); with UACC-257, 51.4 µM (inactive).
